biological target: T1, human CDK9/CyclinT kinase complex (Homo sapiens, UniProt P50750); assay: In vitro CDK9/CyclinT assay (IMAP fluorescence polarization kinase assay); assay type: biochemical; conditions: not given
T1 construct: purchased Proqinase 0371-0345-1
Procedure: In Vitro CDK9/CyclinT Assay
The activity of the compounds described in the present invention can be determined by the following kinase assay, which measures the phosphorylation of a fluorescently-labeled peptide by human CDK9/CyclinT kinase complex by fluorescent polarization using a commercially available IMAP Screening Express Assay Kit (Molecular devices).
CDK9 kinase assays were performed in low protein binding 384-well plates (Corning 3676). Test compounds were diluted in 100% DMSO to 5 mM stock concentration, then further dilutions were made in H2O or 100% DMSO to desirable concentrations.
Each reaction consisted of 5 nM enzyme: CDK9/CyclinT (Proqinase cat#0371-0345-1), 400 nM TAMRA-Rbtide (synthetic 15-mer peptide derived from human retinoblastoma tumor suppressor protein labelled with TAMRA dye, Genecust Europe), 12 μM ATP (=Kmapp, Sigma-Aldrich) and kinase buffer: 20 mM MOPS pH 7 (Sigma-Aldrich), 1 mM DTT (Sigma-Aldrich), 10 mM MgCl2 (Sigma-Aldrich), 0.01% Tween 20 (Sigma-Aldrich).
For each reaction, 4 or 6 μl containing TAMRA-Rbtide, ATP and kianse buffer were combined with 2 μl diluted compound in H2O or 0.028 μl compound in 100% DMSO. The kinase reaction was started by the addition of 2 μl diluted enzyme. The reaction was allowed to run for 1 hours at room temperature. The reaction was stopped by adding 15 μl IMAP beads (1:400 beads in progressive (100% buffer A) 1× buffer). After an additional 1 hours, fluorescent polarization (Ex: 550-10 nm, Em: 590-10 nm, Dich: 561 nm) was measured using an Analyst GT (Molecular devices).

T1 sequence (P50750 whole entry): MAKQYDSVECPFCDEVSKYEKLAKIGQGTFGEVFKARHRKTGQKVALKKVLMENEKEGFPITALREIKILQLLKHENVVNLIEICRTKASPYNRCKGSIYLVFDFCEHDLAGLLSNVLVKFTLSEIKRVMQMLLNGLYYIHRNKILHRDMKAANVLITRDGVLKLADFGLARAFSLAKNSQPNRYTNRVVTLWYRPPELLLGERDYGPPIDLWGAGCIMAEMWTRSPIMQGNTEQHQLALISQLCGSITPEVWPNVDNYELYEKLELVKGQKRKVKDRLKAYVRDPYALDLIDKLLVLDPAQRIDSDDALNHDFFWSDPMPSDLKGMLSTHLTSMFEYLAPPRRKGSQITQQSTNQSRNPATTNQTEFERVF
T1 sequence (O60563 whole entry partner): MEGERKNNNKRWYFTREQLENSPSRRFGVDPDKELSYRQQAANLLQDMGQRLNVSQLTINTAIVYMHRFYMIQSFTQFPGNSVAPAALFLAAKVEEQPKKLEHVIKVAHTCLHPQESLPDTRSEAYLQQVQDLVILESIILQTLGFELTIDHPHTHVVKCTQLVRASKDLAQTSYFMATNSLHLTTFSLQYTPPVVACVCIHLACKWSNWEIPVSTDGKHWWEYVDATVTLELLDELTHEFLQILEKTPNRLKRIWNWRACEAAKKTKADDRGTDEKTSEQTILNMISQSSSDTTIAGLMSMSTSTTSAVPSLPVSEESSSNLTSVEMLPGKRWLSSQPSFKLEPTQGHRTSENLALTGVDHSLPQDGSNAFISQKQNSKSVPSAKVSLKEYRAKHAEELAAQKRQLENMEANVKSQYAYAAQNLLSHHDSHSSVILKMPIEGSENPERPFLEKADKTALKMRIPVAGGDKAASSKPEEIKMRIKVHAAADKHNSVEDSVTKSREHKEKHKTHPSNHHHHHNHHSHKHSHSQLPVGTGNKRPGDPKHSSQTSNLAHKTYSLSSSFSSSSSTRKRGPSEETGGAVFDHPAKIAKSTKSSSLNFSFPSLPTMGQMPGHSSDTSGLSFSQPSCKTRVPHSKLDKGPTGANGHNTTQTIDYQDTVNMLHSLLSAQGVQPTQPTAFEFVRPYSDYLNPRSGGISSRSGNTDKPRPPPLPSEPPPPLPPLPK

Structure (SMILES) | CDK9 inhibitory effect
COc1ccccc1-c1cc(Nc2cccc(Cn3cnc4ccccc43)c2)ncn1 [Example 64, (3-Benzoimidazol-1-ylmethyl-phenyl)-[6-(2-methoxy-phenyl)-pyrimidin-4-yl]-amine] | nanomolar or low nanomolar range
CCCOc1ccccc1-c1cc(Nc2ccc(CNS(C)(=O)=O)cc2)ncn1 [Example 53, N-{4-[6-(2-Propoxy-phenyl)-pyrimidin-4-ylamino]-benzyl}-methanesulfonamide] | nanomolar or low nanomolar range
COc1cc(Cl)ccc1-c1cc(Nc2ccc(CNS(C)(=O)=O)cc2)ncn1 [Example 54, N-{4-[6-(4-Chloro-2-methoxy-phenyl)-pyrimidin-4-ylamino]-benzyl}-methanesulfonamide] | nanomolar or low nanomolar range
COc1ccccc1-c1cc(Nc2cccc(CNS(C)(=O)=O)c2)ncn1 [Example 6, N-{3-[6-(2-Methoxy-phenyl)-pyrimidin-4-ylamino]-benzyl}-methanesulfonamide] | nanomolar or low nanomolar range
CCOc1ccccc1-c1cc(Nc2cccc(CNS(C)(=O)=O)c2)ncn1 [Example 5, N-{3-[6-(2-Ethoxy-phenyl)-pyrimidin-4-ylamino]-benzyl}-methanesulfonamide] | nanomolar or low nanomolar range
COc1cc(F)ccc1-c1cc(Nc2ccc(CNS(C)(=O)=O)cc2)ncn1 [Example 39, N-{4-[6-(4-Fluoro-2-methoxy-phenyl)-pyrimidin-4-ylamino]-benzyl}-methanesulfonamide] | nanomolar or low nanomolar range

same assay, conditions: 5 nM CDK9/CyclinT, 400 nM TAMRA-Rbtide, 12 μM ATP, 1 hour at room temperature; read-out: CDK9 inhibitory range

Structure (SMILES) | IC50
COc1ccccc1-c1cc(Nc2cccc(Cn3cnc4ccccc43)c2)ncn1 [Example 64, (3-Benzoimidazol-1-ylmethyl-phenyl)-[6-(2-methoxy-phenyl)-pyrimidin-4-yl]-amine] | < 100 nM
CCCOc1ccccc1-c1cc(Nc2ccc(CNS(C)(=O)=O)cc2)ncn1 [Example 53, N-{4-[6-(2-Propoxy-phenyl)-pyrimidin-4-ylamino]-benzyl}-methanesulfonamide] | < 100 nM
CS(=O)(=O)NCc1cccc(Nc2cc(-c3ccccc3COc3ccc(OC(F)(F)F)cc3)ncn2)c1 [Example 30, N-(3-{6-[2-(4-Trifluoromethoxy-phenoxymethyl)-phenyl]-pyrimidin-4-ylamino}-benzyl)-methanesulfonamide] | > 10000 nM
COc1ccc(COc2ccccc2-c2cc(Nc3ccc(CNS(C)(=O)=O)cc3)ncn2)cc1 [Example 50, N-(4-{6-[2-(4-Methoxy-benzyloxy)-phenyl]-pyrimidin-4-ylamino}-benzyl)-methanesulfonamide] | < 1000 nM
CC(C)Oc1cc(F)ccc1-c1cc(Nc2cccc(Cn3cnc4ccccc43)c2)ncn1 [Example 81, (3-Benzoimidazol-1-ylmethyl-phenyl)-[6-(4-fluoro-2-isopropoxy-phenyl)-pyrimidin-4-yl]-amine] | < 100 nM
COc1cccc(F)c1-c1cc(Nc2cccc(Cn3cnc4ccccc43)c2)ncn1 [Example 79, (3-Benzoimidazol-1-ylmethyl-phenyl)-[6-(2-fluoro-6-methoxy-phenyl)-pyrimidin-4-yl]-amine] | < 100 nM
COc1cc(F)ccc1-c1cc(Nc2cccc(Cn3c(CN4CCOCC4)nc4ccccc43)c2)ncn1 [Example 94, [6-(4-Fluoro-2-methoxy-phenyl)-pyrimidin-4-yl]-[3-(2-morpholin-4-ylmethyl-benzoimidazol-1-ylmethyl)-phenyl]-amine] | < 10000 nM
Clc1cc(Nc2cccc(Cn3c(CN4CCOCC4)nc4ccccc43)c2)ncn1 [Example 92, (6-Chloro-pyrimidin-4-yl)-[3-(2-morpholin-4-ylmethyl-benzoimidazol-1-ylmethyl)-phenyl]amine] | > 10000 nM
CS(=O)(=O)NCc1cccc(Nc2cc(-c3ccccc3)ncn2)c1 [Example 21, N-[3-(6-Phenyl-pyrimidin-4-ylamino)-benzyl]-methanesulfonamide] | < 10000 nM
COc1cc(Cl)ccc1-c1cc(Nc2ccc(CNS(C)(=O)=O)cc2)ncn1 [Example 54, N-{4-[6-(4-Chloro-2-methoxy-phenyl)-pyrimidin-4-ylamino]-benzyl}-methanesulfonamide] | < 100 nM
COc1ccc(F)cc1-c1cc(Nc2cccc(CNc3nc4ccccc4[nH]3)c2)ncn1 [Example 62, (1H-Benzoimidazol-2-yl)-{3-[6-(5-fluoro-2-methoxy-phenyl)-pyrimidin-4-ylamino]-benzyl}-amine] | < 1000 nM
CS(=O)(=O)NCc1cccc(Nc2cc(-c3ccccc3F)ncn2)c1 [Example 16, N-{3-[6-(2-Fluoro-phenyl)-pyrimidin-4-ylamino]-benzyl}-methanesulfonamide] | < 10000 nM
C=C(c1ccccc1)c1cc(Nc2cccc(CNS(C)(=O)=O)c2)ncn1 [Example 3] | < 10000 nM
CS(=O)(=O)NCc1cccc(Nc2cc(-c3cccc(N)c3)ncn2)c1 [Example 22, N-{3-[6-(3-Amino-phenyl)-pyrimidin-4-ylamino]-benzyl}-methanesulfonamide] | < 1000 nM
COc1ccccc1-c1cc(Nc2cccc(CNS(C)(=O)=O)c2)ncn1 [Example 6, N-{3-[6-(2-Methoxy-phenyl)-pyrimidin-4-ylamino]-benzyl}-methanesulfonamide] | < 100 nM
CS(=O)(=O)NCc1ccc(Nc2cc(-c3cccnc3)ncn2)cc1 [Example 52, N-[4-(6-Pyridin-3-yl-pyrimidin-4-ylamino)-benzyl]-methanesulfonamide] | < 10000 nM
COc1ccccc1-c1cc(Nc2cccc(CNS(=O)(=O)c3cccs3)c2)ncn1 [Example 73, Thiophene-2-sulfonic acid 3-[6-(2-methoxy-phenyl)-pyrimidin-4-ylamino]-benzylamide] | < 1000 nM
COc1cccc(-c2cc(Nc3ccc(CNS(C)(=O)=O)cc3)ncn2)c1 [Example 47, N-{4-[6-(3-Methoxy-phenyl)-pyrimidin-4-ylamino]-benzyl}-methanesulfonamide] | < 10000 nM

Structure (SMILES) | IC50
CS(=O)(=O)NCc1cccc(Nc2cc(-c3ccccc3Oc3ccccc3)ncn2)c1 [Example 4, N-{3-[6-(2-Phenoxy-phenyl)-pyrimidin-4-ylamino]-benzyl}-methanesulfonamide] | < 1000 nM
CCOc1ccccc1-c1cc(Nc2cccc(CNS(C)(=O)=O)c2)ncn1 [Example 5, N-{3-[6-(2-Ethoxy-phenyl)-pyrimidin-4-ylamino]-benzyl}-methanesulfonamide] | < 100 nM
CS(=O)(=O)NCc1cccc(Nc2cc(-c3ccccc3OCc3ccccc3)ncn2)c1 [Example 2, N-{3-[6-(2-Benzyloxy-phenyl)-pyrimidin-4-ylamino]-benzyl}-methanesulfonamide] | < 1000 nM
Oc1cccc(-c2cc(Nc3cccc(Cn4cnc5ccccc54)c3)ncn2)c1 [Example 83, 3-[6-(3-Benzoimidazol-1-ylmethyl-phenylamino)-pyrimidin-4-yl]-phenol] | < 10000 nM
COc1cc(F)ccc1-c1cc(Nc2ccc(CNS(C)(=O)=O)cc2)ncn1 [Example 39, N-{4-[6-(4-Fluoro-2-methoxy-phenyl)-pyrimidin-4-ylamino]-benzyl}-methanesulfonamide] | < 100 nM
COc1ccc(-c2cc(Nc3cccc(CNS(C)(=O)=O)c3)ncn2)cc1 [Example 19, N-{3-[6-(4-Methoxy-phenyl)-pyrimidin-4-ylamino]-benzyl}-methanesulfonamide] | < 10000 nM
CSc1ccccc1-c1cc(Nc2cccc(CNS(C)(=O)=O)c2)ncn1 [Example 28, N-{3-[6-(2-Methylsulfanyl-phenyl)-pyrimidin-4-ylamino]-benzyl}-methanesulfonamide] | < 1000 nM
Clc1cc(Nc2cccc(Cn3ccc4ccccc43)c2)ncn1 [Example 90, (6-Chloro-pyrimidin-4-yl)-(3-indol-1-ylmethyl-phenyl)-amine] | > 10000 nM
Oc1ccc(-c2cc(Nc3cccc(Cn4cnc5ccccc54)c3)ncn2)cc1 [Example 82, 4-[6-(3-Benzoimidazol-1-ylmethyl-phenylamino)-pyrimidin-4-yl]-phenol] | < 1000 nM
COc1ccc(F)cc1-c1cc(Nc2cccc(CNS(C)(=O)=O)c2)ncn1 [Example 9, N-{3-[6-(5-Fluoro-2-methoxy-phenyl)-pyrimidin-4-ylamino]-benzyl}-methanesulfonamide] | < 1000 nM
C[S+]([O-])c1ccccc1-c1cc(Nc2cccc(CNS(C)(=O)=O)c2)ncn1 (centres unmarked) [Example 29, N-{3-[6-(2-Methanesulfinyl-phenyl)-pyrimidin-4-ylamino]-benzyl}-methanesulfonamide] | < 10000 nM
CS(=O)(=O)NCc1ccc(Nc2cc(-c3ccc(F)cc3F)ncn2)cc1 [Example 42, N-{4-[6-(2,4-Difluoro-phenyl)-pyrimidin-4-ylamino]-benzyl}-methanesulfonamide] | > 10000 nM
Clc1cc(Nc2cccc(CNc3nc4ccccc4[nH]3)c2)ncn1 [Example 59, (1H-Benzoimidazol-2-yl)-[3-(6-chloro-pyrimidin-4-ylamino)-benzyl]-amine] | > 10000 nM
COc1ccccc1-c1cc(Nc2cccc(CNS(=O)(=O)c3ccc(F)cc3)c2)ncn1 [Example 72, 4-Fluoro-N-{3-[6-(2-methoxy-phenyl)-pyrimidin-4-ylamino]-benzyl}-benzenesulfonamide] | < 1000 nM
COc1ccccc1-c1cc(Nc2cccc(CNc3nc4ccccc4[nH]3)c2)ncn1 [Example 60, (1H-Benzoimidazol-2-yl)-{3-[6-(2-methoxy-phenyl)-pyrimidin-4-ylamino]-benzyl}-amine] | < 1000 nM
CS(=O)(=O)NCc1ccc(Nc2cc(Cl)ncn2)cc1 [Example 33, N-[4-(6-Chloro-pyrimidin-4-ylamino)-benzyl]-methanesulfonamide] | > 10000 nM
CS(=O)(=O)NCc1ccc(Nc2cc(-c3ccccc3OCc3ccc(F)cc3)ncn2)cc1 [Example 36, N-(4-{6-[2-(4-Fluoro-benzyloxy)-phenyl]-pyrimidin-4-ylamino}-benzyl)-methanesulfonamide] | < 1000 nM

From US9040529B2 (Vichem Chemie Kutató Kft., priority 2009, dated 2015)
